Structures can show the parent of a compound that is named as a salt.
Experiments:
[1] = test system: A431 cells (human epidermoid carcinoma); test: In vitro tumor cell proliferation assay (Cell Titer-Glo luminescent cell viability), A431; type: cell-based; conditions: A-431, 72 h, 72 hours of drug exposure, ATP luminescence readout, read-out: IC50, anti-proliferative activity (inhibition of cell proliferation)
Outline: (§1)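 Proliferation inhibition was measured as ATP-dependent luciferase signal after cells in RPMI with 10% FBS received test compound for 72 h at 37° C. Final concentrations spanned […] to 64 pM in 0.1% DMSO; IC50 values were derived.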

[2] = test system: BT474 (human breast carcinoma); test: In vitro tumor cell proliferation assay (Cell Titer-Glo luminescent cell viability), BT474; type: cell-based; conditions: BT-474, 72 h, BT474 cells, 72 hours of drug exposure, ATP luminescence readout, read-out: IC50, anti-proliferative activity (inhibition of cell proliferation)
Outline: as §1

Row | Structure (SMILES) | IC50 [1] [µM] | IC50 [2] [µM]
1 | OCC(O)CN1CCC(CCn2cc3c(n2)CCc2c-3sc3ncnc(Nc4ccc(OCc5cccc(F)c5)c(Cl)c4)c23)CC1 (stereo not drawn) [Example 257, 3-(4-{2-[6-({3-chloro-4-[(3-fluorobenzyl)oxy]phenyl}amino)-4,5-dihydro-2H-pyrimido[5′,4′:4,5]thieno[2,3-e]indazol-2-yl]ethyl}piperidin-1-yl)propane-1,2-diol] | ≤ 5 | ≤ 1
2 | O=C(CN1CCCC1)N1CCC(Cn2cc3c(n2)CCc2c-3sc3ncnc(Nc4ccc(OCc5cccc(F)c5)c(Cl)c4)c23)CC1 [Example 239, N-{3-chloro-4-[(3-fluorobenzyl)oxy]phenyl}-2-{[1-(pyrrolidin-1-ylacetyl)piperidin-4-yl]methyl}-4,5-dihydro-2H-pyrimido[5′,4′:4,5]thieno[2,3-e]indazol-6-amine] | ≤ 5 | ≤ 1
3 | CN1CCN(CCn2cc3c(n2)CCc2c-3sc3ncnc(Nc4ccc(OCc5ccccc5)c(Cl)c4)c23)CC1 [Example 54, N-[4-(benzyloxy)-3-chlorophenyl]-2-[2-(4-methylpiperazin-1-yl)ethyl]-4,5-dihydro-2H-pyrimido[5′,4′:4,5]thieno[2,3-e]indazol-6-amine] | ≤ 5 | ≤ 1
4 | CN1CCN(CCn2cc3c(n2)CCc2c-3sc3ncnc(Nc4ccc(O)c(Cl)c4)c23)CC1 [Example 46, 2-chloro-4-({2-[2-(4-methylpiperazin-1-yl)ethyl]-4,5-dihydro-2H-pyrimido[5′,4′:4,5]thieno[2,3-e]indazol-6-yl}amino)phenol] | ≤ 50 | ≤ 5
5 | O=C(Cn1ncc2c1CCc1c-2sc2ncnc(Nc3ccc(OCc4cccc(F)c4)c(Cl)c3)c12)Nc1cccnc1 [Example 210, 2-[6-({3-chloro-4-[(3-fluorobenzyl)oxy]phenyl}amino)-4,5-dihydro-3H-pyrimido[5′,4′:4,5]thieno[2,3-e]indazol-3-yl]-N-pyridin-3-ylacetamide] | ≤ 5 | ≤ 1
6 | COCCN1CCN(C[C@@H](O)Cn2ncc3c2CCc2c-3sc3ncnc(Nc4ccc(OCc5cccc(F)c5)c(Cl)c4)c23)CC1 [Example 134, (2R)-1-[6-({3-chloro-4-[(3-fluorobenzyl)oxy]phenyl}amino)-4,5-dihydro-3H-pyrimido[5′,4′:4,5]thieno[2,3-e]indazol-3-yl]-3-[4-(2-methoxyethyl)piperazin-1-yl]propan-2-ol] | ≤ 50 | ≤ 1
7 | O=C(O)Cn1cc2c(n1)CCc1c-2sc2ncnc(Nc3ccc(OCc4cccc(F)c4)c(Cl)c3)c12 [Example 175, [6-({3-chloro-4-[(3-fluorobenzyl)oxy]phenyl}amino)-4,5-dihydro-2H-pyrimido[5′,4′:4,5]thieno[2,3-e]indazol-2-yl]acetic acid] | ≤ 50 | ≤ 5
8 | COC(=O)[C@@H]1CCCN1CCn1cc2c(n1)CCc1c-2sc2ncnc(Nc3ccc(F)c(Cl)c3)c12 [Example 34, methyl 1-(2-{6-[(3-chloro-4-fluorophenyl)amino]-4,5-dihydro-2H-pyrimido[5′,4′:4,5]thieno[2,3-e]indazol-2-yl}ethyl)-L-prolinate] | ≤ 5 | ≤ 5
9 | Fc1cccc(Cn2ncc3cc(Nc4ncnc5sc6c(c45)CCc4nn(CCn5ccnc5)cc4-6)ccc32)c1 [Example 279, N-[1-(3-fluorobenzyl)-1H-indazol-5-yl]-2-[2-(1H-imidazol-1-yl)ethyl]-4,5-dihydro-2H-pyrimido[5′,4′:4,5]thieno[2,3-e]indazol-6-amine] | ≤ 5 | ≤ 1
10 | CC(C)CN1CCC(CCn2cc3c(n2)CCc2c-3sc3ncnc(Nc4ccc(OCc5cccc(F)c5)c(Cl)c4)c23)CC1 [Example 251, N-{3-chloro-4-[(3-fluorobenzyl)oxy]phenyl}-2-[2-(1-isobutylpiperidin-4-yl)ethyl]-4,5-dihydro-2H-pyrimido[5′,4′:4,5]thieno[2,3-e]indazol-6-amine] | ≤ 5 | ≤ 1
11 | O=C(Cn1cc2c(n1)CCc1c-2sc2ncnc(Nc3ccc(OCc4cccc(F)c4)c(Cl)c3)c12)NCCO [Example 178, 2-[6-({3-chloro-4-[(3-fluorobenzyl)oxy]phenyl}amino)-4,5-dihydro-2H-pyrimido[5′,4′:4,5]thieno[2,3-e]indazol-2-yl]-N-(2-hydroxyethyl)acetamide] | ≤ 50 | ≤ 1
12 | CS(=O)(=O)CCNCCn1ncc2c1CCc1c-2sc2ncnc(Nc3ccc(OCc4ccccn4)c(Cl)c3)c12 [Example 114, N-[3-chloro-4-(pyridin-2-ylmethoxy)phenyl]-3-(2-{[2-(methylsulfonyl)ethyl]amino}ethyl)-4,5-dihydro-3H-pyrimido[5′,4′:4,5]thieno[2,3-e]indazol-6-amine] | ≤ 5 | ≤ 1
13 | CN1CCN(CCn2cc3c(n2)CCc2c-3sc3ncnc(Nc4ccc(OCc5ccc(F)cc5)c(Cl)c4)c23)CC1 [Example 326, N-{3-chloro-4-[(4-fluorobenzyl)oxy]phenyl}-2-[2-(4-methylpiperazin-1-yl)ethyl]-4,5-dihydro-2H-pyrimido[5′,4′:4,5]thieno[2,3-e]indazol-6-amine] | ≤ 5 | ≤ 5
14 | CN(C)[C@H]1CCN(CCn2cc3c(n2)CCc2c-3sc3ncnc(Nc4ccc(F)c(Cl)c4)c23)C1 [Example 2, N-(3-chloro-4-fluorophenyl)-2-{2-[(3S)-3-(dimethylamino)pyrrolidin 1-yl]ethyl}-4,5-dihydro-2H-pyrimido[5′,4′:4,5]thieno[2,3-e]indazol-6-amine] | ≤ 5 | ≤ 1
15 | COc1cccc(COc2ccc(Nc3ncnc4sc5c(c34)CCc3nn(CCN4CCN(C)CC4)cc3-5)cc2Cl)c1 [Example 324, N-{3-chloro-4-[(3-methoxybenzyl)oxy]phenyl}-2-[2-(4-methylpiperazin-1-yl)ethyl]-4,5-dihydro-2H-pyrimido[5′,4′:4,5]thieno[2,3-e]indazol-6-amine] | ≤ 5 | ≤ 5
16 | CN(C)CCn1cc2c(n1)CCc1c-2sc2ncnc(Nc3ccc(OCc4cccc(F)c4)c(Cl)c3)c12 [Example 73, N-{3-chloro-4-[(3-fluorobenzyl)oxy]phenyl}-2-[2-(dimethylamino)ethyl]-4,5-dihydro-2H-pyrimido[5′,4′:4,5]thieno[2,3-e]indazol-6-amine] | ≤ 5 | ≤ 1
17 | Clc1cc(Nc2ncnc3sc4c(c23)CCc2nn(CCn3ccnc3)cc2-4)ccc1OCc1ccccn1 [Example 104, N-[3-chloro-4-(pyridin-2-ylmethoxy)phenyl]-2-[2-(1H-imidazol-1-yl)ethyl]-4,5-dihydro-2H-pyrimido[5′,4′:4,5]thieno[2,3-e]indazol-6-amine] | ≤ 50 | ≤ 1
18 | COCCNC[C@@H](O)Cn1ncc2c1CCc1c-2sc2ncnc(Nc3ccc(OCc4cccc(F)c4)c(Cl)c3)c12 [Example 173, (2R)-1-[6-({3-chloro-4-[(3-fluorobenzyl)oxy]phenyl}amino)-4,5-dihydro-3H-pyrimido[5′,4′:4,5]thieno[2,3-e]indazol-3-yl]-3-[(2-methoxyethyl)amino]propan-2-ol trifluoroacetate (salt)] | ≤ 5 | ≤ 1
